Measurements published in paper PMC10004634 (PLOS ONE, 2023).
Like-named read-outs stand apart in the source and are kept apart here.

Legend:
Assay in all cases: biochemical
Design in all cases: KINOMEscan scanMAX competition binding, DNA-tagged kinases, qPCR read-out, percent control at 300 nM
[1] = biological target: DMPK (Homo sapiens, UniProt Q09013)
[2] = biological target: TNNI3K (Homo sapiens, UniProt Q59H18)
[3] = biological target: T1, ABL1(T315I)-phosphorylated (Homo sapiens, UniProt P00519, T315I)
T1 construct: phosphorylated

[4] = biological target: BTK (Homo sapiens, UniProt Q06187)
[5] = biological target: LCK (Homo sapiens, UniProt P06239)
[6] = biological target: FYN (Homo sapiens, UniProt P06241)
[7] = biological target: T2, ABL1(H396P)-nonphosphorylated (Homo sapiens, UniProt P00519, H396P)
T2 construct: nonphosphorylated

[8] = biological target: T3, MEK3 (Homo sapiens, UniProt P46734)
T3 construct: gene MAP2K3

[9] = biological target: CSNK2A1 (Homo sapiens, UniProt P68400)
[10] = biological target: T4, AMPK-alpha2 (Homo sapiens, UniProt P54646)
T4 construct: gene PRKAA2

[11] = biological target: RET (Homo sapiens, UniProt P07949)
[12] = biological target: T5, TYK2(JH1domain-catalytic) (Homo sapiens, UniProt P29597)
T5 construct: JH1domain-catalytic

[13] = biological target: T6, AMPK-alpha1 (Homo sapiens, UniProt Q13131)
T6 construct: gene PRKAA1

[14] = biological target: ERBB4 (Homo sapiens, UniProt Q15303)
[15] = biological target: T7, TAK1 (Homo sapiens, UniProt O43318)
T7 construct: gene MAP3K7

[16] = biological target: KIT(V559D,V654A) (Homo sapiens, UniProt P10721, V559D/V654A)
[17] = biological target: T8, PFTK1 (Homo sapiens, UniProt O94921)
T8 construct: gene CDK14

[18] = biological target: T9, HPK1 (Homo sapiens, UniProt Q92918)
T9 construct: gene MAP4K1

[19] = biological target: T10, ABL1-phosphorylated (Homo sapiens, UniProt P00519)
T10 construct: phosphorylated

[20] = biological target: T11, PCTK3 (Homo sapiens, UniProt Q07002)
T11 construct: gene CDK18

[21] = biological target: MET (Homo sapiens, UniProt P08581)
[22] = biological target: T12, MLK3 (Homo sapiens, UniProt Q16584)
T12 construct: gene MAP3K11

[23] = biological target: MAP3K4 (Homo sapiens, UniProt Q9Y6R4)
[24] = read-out: Percent control / Tirabrutinib
[25] = read-out: Percent control / Ibrutinib
[26] = read-out: Percent control / Zanubrutinib
[27] = read-out: Percent control / Acalabrutinib

Sequence of DMPK (Q09013 whole entry): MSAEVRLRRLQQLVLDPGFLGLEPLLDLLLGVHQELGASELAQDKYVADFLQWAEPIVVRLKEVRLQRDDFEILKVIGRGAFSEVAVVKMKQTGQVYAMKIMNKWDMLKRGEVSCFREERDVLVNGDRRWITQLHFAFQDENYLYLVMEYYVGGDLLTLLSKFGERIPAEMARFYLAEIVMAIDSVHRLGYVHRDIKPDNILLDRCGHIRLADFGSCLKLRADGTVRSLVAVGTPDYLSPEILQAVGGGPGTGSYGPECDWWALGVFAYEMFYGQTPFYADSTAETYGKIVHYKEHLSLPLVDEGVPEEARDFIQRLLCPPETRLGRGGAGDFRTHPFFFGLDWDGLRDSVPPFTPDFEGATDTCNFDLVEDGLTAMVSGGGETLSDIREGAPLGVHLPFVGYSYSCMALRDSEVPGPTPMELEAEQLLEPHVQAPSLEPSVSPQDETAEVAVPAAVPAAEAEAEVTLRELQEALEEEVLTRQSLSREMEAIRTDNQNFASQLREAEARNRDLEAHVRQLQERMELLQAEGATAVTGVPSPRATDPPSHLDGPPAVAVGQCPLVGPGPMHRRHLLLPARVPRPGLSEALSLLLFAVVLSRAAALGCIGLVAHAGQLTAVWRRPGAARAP
Sequence of TNNI3K (Q59H18 whole entry): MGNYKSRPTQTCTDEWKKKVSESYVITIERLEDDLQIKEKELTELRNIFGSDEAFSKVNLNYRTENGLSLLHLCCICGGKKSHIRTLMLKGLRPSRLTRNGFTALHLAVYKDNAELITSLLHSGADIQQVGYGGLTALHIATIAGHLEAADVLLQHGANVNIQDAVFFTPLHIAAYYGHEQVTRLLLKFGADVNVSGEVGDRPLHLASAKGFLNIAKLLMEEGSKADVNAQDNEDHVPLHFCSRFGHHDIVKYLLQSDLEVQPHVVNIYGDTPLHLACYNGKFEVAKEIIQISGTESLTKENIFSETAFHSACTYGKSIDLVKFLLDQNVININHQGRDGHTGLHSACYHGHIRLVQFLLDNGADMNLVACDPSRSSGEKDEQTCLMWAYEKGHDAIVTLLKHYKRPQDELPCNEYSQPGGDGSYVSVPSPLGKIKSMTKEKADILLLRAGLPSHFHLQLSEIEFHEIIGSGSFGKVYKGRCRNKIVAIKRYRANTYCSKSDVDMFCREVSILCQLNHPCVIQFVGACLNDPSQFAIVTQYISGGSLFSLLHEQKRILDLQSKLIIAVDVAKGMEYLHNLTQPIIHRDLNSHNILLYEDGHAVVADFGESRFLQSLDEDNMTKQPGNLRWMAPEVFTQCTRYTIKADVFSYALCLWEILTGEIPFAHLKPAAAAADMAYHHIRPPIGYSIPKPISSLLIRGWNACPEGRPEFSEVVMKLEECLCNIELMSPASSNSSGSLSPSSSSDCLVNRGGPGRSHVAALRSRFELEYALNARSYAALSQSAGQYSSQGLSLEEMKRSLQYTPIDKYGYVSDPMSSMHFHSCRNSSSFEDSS
Sequence of LCK (P06239 whole entry): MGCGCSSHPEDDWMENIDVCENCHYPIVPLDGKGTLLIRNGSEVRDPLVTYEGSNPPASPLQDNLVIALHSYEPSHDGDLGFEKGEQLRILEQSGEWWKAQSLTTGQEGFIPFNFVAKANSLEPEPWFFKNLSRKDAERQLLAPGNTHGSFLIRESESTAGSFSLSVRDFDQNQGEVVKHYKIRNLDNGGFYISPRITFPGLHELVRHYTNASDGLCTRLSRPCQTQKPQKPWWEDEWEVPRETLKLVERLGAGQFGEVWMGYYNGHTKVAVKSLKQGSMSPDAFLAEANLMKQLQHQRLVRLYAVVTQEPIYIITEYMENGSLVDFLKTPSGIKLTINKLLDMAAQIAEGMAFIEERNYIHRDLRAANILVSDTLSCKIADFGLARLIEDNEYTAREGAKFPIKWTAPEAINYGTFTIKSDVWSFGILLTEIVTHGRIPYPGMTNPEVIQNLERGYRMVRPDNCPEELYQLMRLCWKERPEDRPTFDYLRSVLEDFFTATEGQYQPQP
Sequence of FYN (P06241 whole entry): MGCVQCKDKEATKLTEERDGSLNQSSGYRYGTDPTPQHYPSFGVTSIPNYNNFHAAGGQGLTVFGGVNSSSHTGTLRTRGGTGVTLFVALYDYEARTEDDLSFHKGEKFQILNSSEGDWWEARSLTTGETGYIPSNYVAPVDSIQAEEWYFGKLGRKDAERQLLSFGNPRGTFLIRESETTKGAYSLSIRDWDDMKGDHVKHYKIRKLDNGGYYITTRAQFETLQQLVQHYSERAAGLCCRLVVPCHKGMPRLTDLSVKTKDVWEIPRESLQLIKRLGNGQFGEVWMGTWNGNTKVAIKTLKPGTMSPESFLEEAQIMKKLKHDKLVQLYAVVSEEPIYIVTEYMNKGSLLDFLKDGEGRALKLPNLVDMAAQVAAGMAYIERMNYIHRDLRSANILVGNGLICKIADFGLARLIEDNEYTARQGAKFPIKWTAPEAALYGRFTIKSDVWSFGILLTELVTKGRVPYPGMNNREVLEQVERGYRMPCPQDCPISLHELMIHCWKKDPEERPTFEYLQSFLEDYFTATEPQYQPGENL
Sequence of MAP3K4 (Q9Y6R4 whole entry): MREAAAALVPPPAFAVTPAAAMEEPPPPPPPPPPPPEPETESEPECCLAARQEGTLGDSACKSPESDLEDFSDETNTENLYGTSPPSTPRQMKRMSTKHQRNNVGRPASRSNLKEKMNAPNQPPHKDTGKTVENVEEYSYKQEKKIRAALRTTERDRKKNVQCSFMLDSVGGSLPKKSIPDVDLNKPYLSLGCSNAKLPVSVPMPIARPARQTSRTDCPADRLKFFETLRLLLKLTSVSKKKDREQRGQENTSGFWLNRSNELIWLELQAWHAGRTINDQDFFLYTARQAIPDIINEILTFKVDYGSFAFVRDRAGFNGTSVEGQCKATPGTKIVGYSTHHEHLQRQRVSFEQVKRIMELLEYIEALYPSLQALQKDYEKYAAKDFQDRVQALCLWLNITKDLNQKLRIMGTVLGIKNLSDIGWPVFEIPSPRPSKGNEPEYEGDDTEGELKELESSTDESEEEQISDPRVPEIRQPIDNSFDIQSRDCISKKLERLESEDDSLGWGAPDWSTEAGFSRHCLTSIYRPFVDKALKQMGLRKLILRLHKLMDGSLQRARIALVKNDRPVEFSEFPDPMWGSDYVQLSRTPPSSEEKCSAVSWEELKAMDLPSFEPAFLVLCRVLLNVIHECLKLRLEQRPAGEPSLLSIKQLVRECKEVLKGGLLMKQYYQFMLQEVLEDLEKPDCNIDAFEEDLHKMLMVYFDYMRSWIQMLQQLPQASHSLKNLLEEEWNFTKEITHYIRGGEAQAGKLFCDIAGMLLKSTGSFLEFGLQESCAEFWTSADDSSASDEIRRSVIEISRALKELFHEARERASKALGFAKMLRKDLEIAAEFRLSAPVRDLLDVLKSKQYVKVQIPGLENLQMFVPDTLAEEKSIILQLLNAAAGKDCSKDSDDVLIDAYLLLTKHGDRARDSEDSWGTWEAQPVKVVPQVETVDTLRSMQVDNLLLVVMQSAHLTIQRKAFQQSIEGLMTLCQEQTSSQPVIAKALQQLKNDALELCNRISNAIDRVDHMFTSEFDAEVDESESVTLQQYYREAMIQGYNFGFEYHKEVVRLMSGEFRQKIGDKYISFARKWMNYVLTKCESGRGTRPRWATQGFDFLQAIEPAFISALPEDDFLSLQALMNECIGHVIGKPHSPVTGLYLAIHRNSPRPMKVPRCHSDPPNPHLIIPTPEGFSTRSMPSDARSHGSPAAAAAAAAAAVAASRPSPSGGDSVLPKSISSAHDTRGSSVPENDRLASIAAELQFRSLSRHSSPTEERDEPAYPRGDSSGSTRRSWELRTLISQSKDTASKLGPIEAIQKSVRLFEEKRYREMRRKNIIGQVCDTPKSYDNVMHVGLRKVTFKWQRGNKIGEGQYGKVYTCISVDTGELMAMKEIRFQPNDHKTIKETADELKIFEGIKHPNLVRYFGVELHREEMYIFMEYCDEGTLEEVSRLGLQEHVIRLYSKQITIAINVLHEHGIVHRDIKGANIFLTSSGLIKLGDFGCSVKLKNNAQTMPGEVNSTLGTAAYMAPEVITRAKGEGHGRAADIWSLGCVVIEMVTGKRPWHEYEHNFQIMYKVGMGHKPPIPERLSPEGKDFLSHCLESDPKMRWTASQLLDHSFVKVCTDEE
T9 sequence (Q92918 whole entry): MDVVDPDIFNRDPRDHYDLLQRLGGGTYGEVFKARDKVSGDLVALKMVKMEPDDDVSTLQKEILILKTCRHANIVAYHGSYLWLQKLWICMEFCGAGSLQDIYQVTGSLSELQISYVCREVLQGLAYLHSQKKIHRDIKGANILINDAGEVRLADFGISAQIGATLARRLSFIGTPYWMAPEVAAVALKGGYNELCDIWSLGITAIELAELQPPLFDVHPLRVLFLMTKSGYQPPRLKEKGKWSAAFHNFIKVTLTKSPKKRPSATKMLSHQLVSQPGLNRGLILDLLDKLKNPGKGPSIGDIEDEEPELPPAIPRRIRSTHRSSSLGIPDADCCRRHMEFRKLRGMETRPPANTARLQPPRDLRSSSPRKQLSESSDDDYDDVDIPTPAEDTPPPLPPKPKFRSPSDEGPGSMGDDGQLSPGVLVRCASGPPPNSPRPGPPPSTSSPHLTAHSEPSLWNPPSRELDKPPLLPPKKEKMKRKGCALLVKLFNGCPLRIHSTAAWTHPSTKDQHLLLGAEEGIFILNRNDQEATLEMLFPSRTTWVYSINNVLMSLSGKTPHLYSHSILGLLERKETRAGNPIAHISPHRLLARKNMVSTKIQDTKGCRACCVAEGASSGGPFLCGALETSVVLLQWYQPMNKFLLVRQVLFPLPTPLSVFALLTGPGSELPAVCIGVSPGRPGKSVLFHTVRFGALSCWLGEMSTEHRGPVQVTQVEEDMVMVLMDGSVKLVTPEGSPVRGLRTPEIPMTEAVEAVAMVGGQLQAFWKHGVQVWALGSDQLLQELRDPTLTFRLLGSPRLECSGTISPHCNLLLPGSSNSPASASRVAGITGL

Q: `CC#CC(=O)N1CC[C@@H](n2c(=O)n(-c3ccc(Oc4ccccc4)cc3)c3c(N)ncnc32)C1` [Tirabrutinib] was tested. Which remaining binding at 0.3 µM [1, 24] did it give?
A: The remaining binding at 0.3 µM was 93%.

Q: And the remaining binding at 0.3 µM [2, 24]?
A: The remaining binding at 0.3 µM was 91%.

Q: What about the remaining binding at 0.3 µM [3, 24] of the same compound?
A: The remaining binding at 0.3 µM was 73%.

Q: What about the remaining binding at 0.3 µM [4, 24] of the same compound?
A: Its remaining binding at 0.3 µM is 3%.

Q: And the remaining binding at 0.3 µM [5, 24]?
A: Its remaining binding at 0.3 µM is 49%.

Q: For `C=CC(=O)N1CCC[C@@H](n2nc(-c3ccc(Oc4ccccc4)cc3)c3c(N)ncnc32)C1` [Ibrutinib], which remaining binding at 0.3 µM [6, 25] is on record?
A: The remaining binding at 0.3 µM was 19%.

Q: What about the remaining binding at 0.3 µM [7, 25] of the same compound?
A: Its remaining binding at 0.3 µM is 31%.

Q: And the remaining binding at 0.3 µM [8, 25]?
A: Its remaining binding at 0.3 µM is 93%.

Q: What about the remaining binding at 0.3 µM [9, 25] of the same compound?
A: The remaining binding at 0.3 µM was 90%.

Q: And the remaining binding at 0.3 µM [10, 25]?
A: The remaining binding at 0.3 µM was 97%.

Q: What about the remaining binding at 0.3 µM [11, 25] of the same compound?
A: Its remaining binding at 0.3 µM is 40%.

Q: What about the remaining binding at 0.3 µM [12, 25] of the same compound?
A: Its remaining binding at 0.3 µM is 87%.

Q: What about the remaining binding at 0.3 µM [13, 25] of the same compound?
A: Its remaining binding at 0.3 µM is 92%.

Q: And the remaining binding at 0.3 µM [14, 25]?
A: Its remaining binding at 0.3 µM is 0.15%.

Q: For `C=CC(=O)N1CCC([C@@H]2CCNc3c(C(N)=O)c(-c4ccc(Oc5ccccc5)cc4)nn32)CC1` [Zanubrutinib], which remaining binding at 0.3 µM [1, 26] is on record?
A: Its remaining binding at 0.3 µM is 90%.

Q: And the remaining binding at 0.3 µM [15, 26]?
A: The remaining binding at 0.3 µM was 83%.

Q: What about the remaining binding at 0.3 µM [16, 26] of the same compound?
A: The remaining binding at 0.3 µM was 90%.

Q: What about the remaining binding at 0.3 µM [17, 26] of the same compound?
A: Its remaining binding at 0.3 µM is 92%.

Q: And the remaining binding at 0.3 µM [18, 26]?
A: The remaining binding at 0.3 µM was 100%.

Q: And the remaining binding at 0.3 µM [19, 26]?
A: Its remaining binding at 0.3 µM is 77%.

Q: And the remaining binding at 0.3 µM [20, 26]?
A: Its remaining binding at 0.3 µM is 92%.

Q: What about the remaining binding at 0.3 µM [12, 26] of the same compound?
A: Its remaining binding at 0.3 µM is 82%.

Q: And the remaining binding at 0.3 µM [21, 26]?
A: The remaining binding at 0.3 µM was 96%.

Q: And the remaining binding at 0.3 µM [13, 26]?
A: Its remaining binding at 0.3 µM is 88%.

Q: What about the remaining binding at 0.3 µM [22, 26] of the same compound?
A: Its remaining binding at 0.3 µM is 98%.

Q: And the remaining binding at 0.3 µM [23, 26]?
A: The remaining binding at 0.3 µM was 75%.

Q: Which remaining binding at 0.3 µM [15, 27] does the source give for `CC#CC(=O)N1CCC[C@H]1c1nc(-c2ccc(C(=O)Nc3ccccn3)cc2)c2c(N)nccn12` [Acalabrutinib] here?
A: Its remaining binding at 0.3 µM is 86%.

Q: And the remaining binding at 0.3 µM [16, 27]?
A: The remaining binding at 0.3 µM was 94%.

Q: And the remaining binding at 0.3 µM [6, 27]?
A: Its remaining binding at 0.3 µM is 95%.

Q: What about the remaining binding at 0.3 µM [7, 27] of the same compound?
A: Its remaining binding at 0.3 µM is 85%.

Q: What about the remaining binding at 0.3 µM [8, 27] of the same compound?
A: The remaining binding at 0.3 µM was 99%.

Q: What about the remaining binding at 0.3 µM [2, 27] of the same compound?
A: Its remaining binding at 0.3 µM is 66%.

Q: And the remaining binding at 0.3 µM [17, 27]?
A: The remaining binding at 0.3 µM was 89%.

Q: What about the remaining binding at 0.3 µM [9, 27] of the same compound?
A: Its remaining binding at 0.3 µM is 99%.

Q: What about the remaining binding at 0.3 µM [18, 27] of the same compound?
A: The remaining binding at 0.3 µM was 93%.

Q: And the remaining binding at 0.3 µM [19, 27]?
A: The remaining binding at 0.3 µM was 95%.

Q: And the remaining binding at 0.3 µM [20, 27]?
A: The remaining binding at 0.3 µM was 90%.

Q: What about the remaining binding at 0.3 µM [3, 27] of the same compound?
A: The remaining binding at 0.3 µM was 97%.

Q: And the remaining binding at 0.3 µM [4, 27]?
A: The remaining binding at 0.3 µM was 0.3%.

Q: What about the remaining binding at 0.3 µM [10, 27] of the same compound?
A: The remaining binding at 0.3 µM was 96%.

Q: What about the remaining binding at 0.3 µM [11, 27] of the same compound?
A: Its remaining binding at 0.3 µM is 87%.

Q: And the remaining binding at 0.3 µM [21, 27]?
A: The remaining binding at 0.3 µM was 90%.

Q: What about the remaining binding at 0.3 µM [22, 27] of the same compound?
A: The remaining binding at 0.3 µM was 87%.

Q: And the remaining binding at 0.3 µM [23, 27]?
A: Its remaining binding at 0.3 µM is 78%.

Q: And the remaining binding at 0.3 µM [5, 27]?
A: The remaining binding at 0.3 µM was 83%.

Q: And the remaining binding at 0.3 µM [14, 27]?
A: The remaining binding at 0.3 µM was 7.7%.
